The source of these data is patent publication US20190275033A1 (Boehringer Ingelheim International GmbH, priority 2016, published 2019).

Test [1] has as its system dermal fibroblasts from patients with SSc. The test is described as follows: Dermal fibroblasts from patients with SSc. Type of test: cell-based, human.
The next test has as its system patients with IPF. Particulars: cited from earlier work.
For test [2], the system named is Skin and lung fibrosis in transgenic Fra-2 mice. The experiment in a line: Skin and lung fibrosis in transgenic Fra-2 mice (genetic model of SSc-ILD). Type of test: in vivo. An excerpt: Data are shown in Huang et al., Ann. Rheum. Dis. […] Clin. Pract. Rheumatol. 2006; 1:134-44.
The subject of test [3] is platelet-derived growth factor receptors (PDGFRs). Particulars: preclinical studies; cited from earlier work.

As for `COC(=O)c1ccc2c(c1)NC(=O)/C2=C(\Nc1ccc(N(C)C(=O)CN2CCN(C)CC2)cc1)c1ccccc1` [nintedanib, 3-Z-[1-(4-(N-((4-methyl-piperazin-1-yl)-methylcarbonyl)-N-methyl-amino)-anilino)-1-phenyl-methylene]-6-methoxycarbonyl-2-indolinone], in test [1], the “expression of extracellular matrix markers” value is “reduced”, the migration result was “inhibited”, the proliferation result is “inhibited” and the transformation to myofibroblast result is on record as “attenuated”. Also, in the test with patients with IPF (INPULSIS and TOMORROW trials, 150 mg twice daily), the efficacy versus placebo result is recorded as “positive results”. Besides, the “reduction of the annual rate of decline in FVC (mL/year)” value with patients with IPF (both INPULSIS trials, 150 mg twice daily versus placebo) was “approximately 50%”. Also, in test [2] (Fra2+/− mice), the Lung fibrosis entry is recorded as “normalises”, the lung vascular remodelling entry is given as “normalises” and the skin fibrosis entry is on record as “normalises”. Moreover, in test [2] (therapeutic treatment), the Dermal thickness entry is on record as “thickness↓”, the ECM entry is recorded as “ECM↓”, the Hydroxiproline entry is listed as “Hydroxiproline↓” and the MVEC apoptosis entry was “apoptosis↑”. For the same compound, in test [2] (therapeutic treatment), the Occluded vessels result is listed as “vessels↓”; the “Skin and lung myofibroblast count” value was “count↓”; the VSMC entry is “VSMC↓”; the Vessel wall thickness entry is “thickness↓”. In addition, the “inhibition of PDGFRs” value in test [3] is “highly potent”.
